Reference: US11787762B2, “Tetralin and tetrahydroquinoline compounds as inhibitors of HIF-2alpha” (ARCUS BIOSCIENCES, INC., priority 2020, dated 2023)

target: T1, HIF-2α (Homo sapiens, UniProt Q99814); experiment: HIF-2α luciferase reporter assay in HIF-Luc-786-O cells; format: cell-based; conditions: Table 1, 20 hours incubation
T1 construct: host or cells: 786-O cells stably transduced with Cignal Lenti HIF Luc Reporter (only the reporter was introduced, not HIF-2α)
Method: Generation of HIF-2α Luciferase 786-O Cell Line:
Stable cell lines were generated by transducing 786-O cells (ATCC, CRL-1932) with Cignal Lenti HIF Luc Reporter lentivirus (CLS-007 L, Qiagen) according to the manufacturer's guidelines. In brief, 0.3×10^6 786-0 cells were transduced with lentivirus at a Multiplicity of Infection (MOI) of 25 for 24 hours. After transduction, cells were replenished with fresh RPMI 1640 Medium (Cat. No. 11875085, Thermo Fisher,) supplemented with 10% FBS (Cat. No. A3160502, Gibco), 2 mM GlutaMax (Cat. No. 35050-061, Invitrogen) and 100 units of penicillin and 100 μg of streptomycin/mL (Cat. No 15070063, Thermo Fisher) for another 24 hours. Antibiotic selection was performed in cell media containing 4 μg/mL of Puromycin. After 7 days of antibiotic selection, stable pools of surviving cells were expanded and used in a luciferase reporter assay.
HIF-2α Luciferase Reporter Assay:
On day one, 20 uL of HIF-Luc-786-0 cells in OptiMem (Cat. No. 31985088, Thermo Fisher) were seeded into each well of a 384 well white opaque plate (Corning 3570) and incubated at 37° C. and 5% CO2. Twenty microliters of 2× test compounds in OptiMem were added to cells after 4 hours of incubation. Final assay conditions comprised 20,000 cells per well in 1% DMSO with test compound concentrations ranging from 50 uM to 0 uM. After 20 hours incubation at 37° C. and 5% CO2, luciferase activity was determined using ONE-Glo Luciferase Assay Reagent (E6110, Promega) following the manufacture's recommended procedure. Briefly, 40 uL of ONE-Glo luciferase reagents were added to each well and luciferase signals were measured using an Envision 2102 Multilabel Reader. Percentage maximum activity in each test well was calculated based on DMSO (maximum activity) and no cell control wells (baseline activity). The IC50 values of the test compounds were determined from compound dose response curves fitted using a standard four parameter fit equation.

T1 sequence (Q99814 whole entry): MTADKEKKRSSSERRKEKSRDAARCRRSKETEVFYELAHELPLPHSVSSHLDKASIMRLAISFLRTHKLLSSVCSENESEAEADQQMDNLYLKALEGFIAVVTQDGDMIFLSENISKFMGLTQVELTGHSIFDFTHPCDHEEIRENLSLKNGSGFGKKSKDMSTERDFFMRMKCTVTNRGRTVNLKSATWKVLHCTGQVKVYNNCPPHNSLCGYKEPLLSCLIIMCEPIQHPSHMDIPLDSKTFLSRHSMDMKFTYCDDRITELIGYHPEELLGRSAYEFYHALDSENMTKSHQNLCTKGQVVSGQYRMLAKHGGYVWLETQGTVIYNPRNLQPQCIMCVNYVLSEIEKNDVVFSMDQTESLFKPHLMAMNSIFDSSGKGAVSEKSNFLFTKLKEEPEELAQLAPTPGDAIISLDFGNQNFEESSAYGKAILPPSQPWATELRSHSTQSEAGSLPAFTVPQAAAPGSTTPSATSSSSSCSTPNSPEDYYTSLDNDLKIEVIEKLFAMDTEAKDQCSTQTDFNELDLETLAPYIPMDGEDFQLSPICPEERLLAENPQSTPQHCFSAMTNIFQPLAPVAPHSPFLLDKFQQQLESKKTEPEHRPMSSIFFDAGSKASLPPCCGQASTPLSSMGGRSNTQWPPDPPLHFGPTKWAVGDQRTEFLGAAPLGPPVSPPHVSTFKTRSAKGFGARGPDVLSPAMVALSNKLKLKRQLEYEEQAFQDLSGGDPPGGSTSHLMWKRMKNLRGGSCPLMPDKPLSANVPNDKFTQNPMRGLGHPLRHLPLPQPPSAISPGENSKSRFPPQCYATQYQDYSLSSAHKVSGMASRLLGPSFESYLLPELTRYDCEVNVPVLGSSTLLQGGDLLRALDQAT

With `O=[N+]([O-])c1cc(S(=O)(=O)C(F)(F)F)ccc1N1CCCc2ccc(C(F)F)cc21` [Example 67] as the molecule, how does the IC50 read?
The IC50 was > 1000 nM.

same assay, conditions: Table 3, 20 hours incubation

With `Cc1ncc(-c2ccc([C@H]3CC[C@H](F)c4cc(F)cc(C#N)c43)c3c2[C@H](O)C(F)(F)C3)n1C` [Example 236, (5S,8R)-8-[(1S)-7-(2,3-dimethylimidazol-4-yl)-2,2-difluoro-1-hydroxy-1,3-dihydroinden-4-yl]-3,5-difluoro-5,6,7,8-tetrahydronaphthalene-1-carbonitrile] as the molecule, how does the IC50 read?
The IC50 was < 100 nM.

For `Cc1c(C#N)cccc1-c1ccc([C@H]2CC[C@H](F)c3cc(F)cc(C#N)c32)c2c1[C@H](O)C(F)(F)C2` [Example 155, (5S,8R)-8-[(1S)-7-(3-cyano-2-methylphenyl)-2,2-difluoro-1-hydroxy-1,3-dihydroinden-4-yl]-3,5-difluoro-5,6,7,8-tetrahydronaphthalene-1-carbonitrile], which IC50 is on record?
The IC50 was < 100 nM.

How did the IC50 turn out when `Cc1ccccc1-c1ccc([C@H]2CC[C@H](F)c3cc(F)cc(C#N)c32)c2c1[C@H](O)C(F)(F)C2` [Example 144, (5S,8R)-8-[(1S)-2,2-difluoro-1-hydroxy-7-(2-methylphenyl)-2,3-dihydro-1H-inden-4-yl]-3,5-difluoro-5,6,7,8-tetrahydronaphthalene-1-carbonitrile] was run?
The IC50 was < 100 nM.

`N#Cc1cc(F)cc2c1[C@@H](c1ccc(-c3cc(F)ccc3N)c3c1CC(F)(F)[C@H]3O)CC[C@@H]2F` [Example 235, (5S,8R)-8-[(1S)-7-(2-amino-5-fluorophenyl)-2,2-difluoro-1-hydroxy-1,3-dihydroinden-4-yl]-3,5-difluoro-5,6,7,8-tetrahydronaphthalene-1-carbonitrile] was tested. Which IC50 did it give?
The IC50 was < 100 nM.

How did the IC50 turn out when `Cc1nc(N)ncc1-c1ccc([C@H]2CC[C@H](F)c3cc(F)cc(C#N)c32)c2c1[C@H](O)C(F)(F)C2` [Example 168, (5S,8R)-8-[(1S)-7-(2-amino-4-methylpyrimidin-5-yl)-2,2-difluoro-1-hydroxy-1,3-dihydroinden-4-yl]-3,5-difluoro-5,6,7,8-tetrahydronaphthalene-1-carbonitrile] was run?
The IC50 was < 100 nM.

Which IC50 does the source give for `N#Cc1cc(N)ncc1-c1ccc([C@H]2CC[C@H](F)c3cc(F)cc(C#N)c32)c2c1[C@H](O)C(F)(F)C2` [Example 149, 2-amino-5-[(3S)-7-[(1R,4S)-8-cyano-4,6-difluoro-1,2,3,4-tetrahydronaphthalen-1-yl]-2,2-difluoro-3-hydroxy-1,3-dihydroinden-4-yl] pyridine-4-carbonitrile] here?
The IC50 was < 100 nM.

How did the IC50 turn out when `N#Cc1cc(F)cc2c1[C@@H](c1ccc(-c3cccc4c3CC(=O)N4)c3c1CC(F)(F)[C@H]3O)CC[C@@H]2F` [Example 164, (5S,8R)-8-[(1S)-2,2-difluoro-1-hydroxy-7-(2-oxo-2,3-dihydro-1H-indol-4-yl)-2,3-dihydro-1H-inden-4-yl]-3,5-difluoro-5,6,7,8-tetrahydronaphthalene-1-carbonitrile] was run?
Its IC50 is 100 to 1000 nM.

Which IC50 does the source give for `Cc1ncc(-c2ccc([C@H]3CC[C@H](F)c4cc(F)cc(C#N)c43)c3c2[C@H](O)C(F)(F)C3)o1` [Example 148, (5S,8R)-8-[(1S)-2,2-difluoro-1-hydroxy-7-(2-methyl-1,3-oxazol-5-yl)-1,3-dihydroinden-4-yl]-3,5-difluoro-5,6,7,8-tetrahydronaphthalene-1-carbonitrile] here?
The IC50 was 100 to 1000 nM.

With `N#Cc1cc(F)cc2c1[C@@H](c1ccc(-c3ccn[nH]3)c3c1C[C@@H](F)[C@H]3O)CC[C@@H]2F` [Example 172, (5S,8R)-3,5-difluoro-8-[(1S,2R)-2-fluoro-1-hydroxy-7-(1H-pyrazol-5-yl)-2,3-dihydro-1H-inden-4-yl]-5,6,7,8-tetrahydronaphthalene-1-carbonitrile] as the molecule, how does the IC50 read?
Its IC50 is > 1000 nM.

How did the IC50 turn out when `Cn1ccnc1-c1ccc([C@H]2CC[C@H](F)c3cc(F)cc(C#N)c32)c2c1[C@H](O)C(F)(F)C2` [Example 238, (5S,8R)-8-[(1S)-2,2-difluoro-1-hydroxy-7-(1-methylimidazol-2-yl)-1,3-dihydroinden-4-yl]-3,5-difluoro-5,6,7,8-tetrahydronaphthalene-1-carbonitrile] was run?
Its IC50 is 100 to 1000 nM.

`N#Cc1cc(F)cc2c1[C@@H](c1ccc(-n3ccnc3)c3c1CC(F)(F)[C@H]3O)CC[C@@H]2F` [Example 199, (5S,8R)-8-[(1S)-2,2-difluoro-1-hydroxy-7-imidazol-1-yl-1,3-dihydroinden-4-yl]-3,5-difluoro-5,6,7,8-tetrahydronaphthalene-1-carbonitrile] was tested. Which IC50 did it give?
The IC50 was < 100 nM.

For `N#Cc1cc(F)cc2c1[C@@H](c1ccc(-c3cccc4ncoc34)c3c1CC(F)(F)[C@H]3O)CC[C@@H]2F` [Example 228, (5S,8R)-8-[(1S)-7-(1,3-benzoxazol-7-yl)-2,2-difluoro-1-hydroxy-1,3-dihydroinden-4-yl]-3,5-difluoro-5,6,7,8-tetrahydronaphthalene-1-carbonitrile], which IC50 is on record?
The IC50 was < 100 nM.

How did the IC50 turn out when `N#Cc1cc(F)cc2c1[C@@H](c1ccc(-c3cccc4ncsc34)c3c1CC(F)(F)[C@H]3O)CC[C@@H]2F` [Example 189, (5S,8R)-8-[(1S)-7-(1,3-benzothiazol-7-yl)-2,2-difluoro-1-hydroxy-1,3-dihydroinden-4-yl]-3,5-difluoro-5,6,7,8-tetrahydronaphthalene-1-carbonitrile] was run?
Its IC50 is < 100 nM.

How did the IC50 turn out when `CC(C)(O)c1ccc([C@H]2CC[C@H](F)c3cc(F)cc(C#N)c32)c2c1[C@H](O)C(F)(F)C2` [Example 226, (5S,8R)-8-[(1S)-2,2-difluoro-1-hydroxy-7-(2-hydroxypropan-2-yl)-1,3-dihydroinden-4-yl]-3,5-difluoro-5,6,7,8-tetrahydronaphthalene-1-carbonitrile] was run?
Its IC50 is < 100 nM.

For `N#Cc1cc(F)cc2c1[C@@H](c1cc(F)c(Cl)c3c1CC(F)(F)[C@H]3O)CC[C@@H]2F` [Example 207, (5S,8R)-8-[(1S)-7-chloro-2,2,6-trifluoro-1-hydroxy-1,3-dihydroinden-4-yl]-3,5-difluoro-5,6,7,8-tetrahydronaphthalene-1-carbonitrile], which IC50 is on record?
Its IC50 is < 100 nM.

With `Cn1cc(-c2ccc([C@H]3CC[C@H](F)c4cc(F)cc(C#N)c43)c3c2[C@H](O)C(F)(F)C3)nn1` [Example 146, (5S,8R)-8-[(1S)-2,2-difluoro-1-hydroxy-7-(1-methyl-1H-1,2,3-triazol-4-yl)-2,3-dihydro-1H-inden-4-yl]-3,5-difluoro-5,6,7,8-tetrahydronaphthalene-1-carbonitrile] as the molecule, how does the IC50 read?
Its IC50 is < 100 nM.

Which IC50 does the source give for `CN(C)C(=O)c1ccc([C@H]2CC[C@H](F)c3cc(F)cc(C#N)c32)c2c1[C@H](O)C(F)(F)C2` [Example 224, (3S)-7-[(1R,4S)-8-cyano-4,6-difluoro-1,2,3,4-tetrahydronaphthalen-1-yl]-2,2-difluoro-3-hydroxy-N,N-dimethyl-1,3-dihydroindene-4-carboxamide] here?
Its IC50 is 100 to 1000 nM.

For `CS(=O)(=O)c1c(F)cc([C@H]2CC[C@H](F)c3cc(F)cc(C#N)c32)c2c1[C@H](O)[C@H](F)C2` [Example 211, (5S,8R)-8-[(1S,2R)-2,6-Difluoro-1-hydroxy-7-methylsulfonyl-2,3-dihydro-1H-inden-4-yl]-3,5-difluoro-5,6,7,8-tetrahydronaphthalene-1-carbonitrile], which IC50 is on record?
Its IC50 is < 100 nM.

Which IC50 does the source give for `N#Cc1cc(F)cc2c1[C@@H](c1ccc(-c3cnncc3N)c3c1CC(F)(F)[C@H]3O)CC[C@@H]2F` [Example 178, (5S,8R)-8-[(1S)-7-(5-aminopyridazin-4-yl)-2,2-difluoro-1-hydroxy-1,3-dihydroinden-4-yl]-3,5-difluoro-5,6,7,8-tetrahydronaphthalene-1-carbonitrile] here?
The IC50 was 100 to 1000 nM.

With `N#Cc1cc(F)cc2c1[C@@H](c1ccc(-c3cnc4ncccn34)c3c1CC(F)(F)[C@H]3O)CC[C@@H]2F` [Example 233, (5S,8R)-8-[(1S)-2,2-difluoro-1-hydroxy-7-imidazo[1,2-a]pyrimidin-3-yl-1,3-dihydroinden-4-yl]-3,5-difluoro-5,6,7,8-tetrahydronaphthalene-1-carbonitrile] as the molecule, how does the IC50 read?
Its IC50 is 100 to 1000 nM.

For `N#Cc1cc(F)cc2c1[C@@H](c1ccc(Cl)c3c1CC(F)(F)[C@H]3O)C[C@H](F)[C@@H]2F` [Example 219, (5R,6S,8R)-8-[(1S)-7-chloro-2,2-difluoro-1-hydroxy-2,3-dihydro-1H-inden-4-yl]-3,5,6-trifluoro-5,6,7,8-tetrahydronaphthalene-1-carbonitrile], which IC50 is on record?
Its IC50 is < 100 nM.

How did the IC50 turn out when `Cc1scnc1-c1ccc([C@H]2CC[C@H](F)c3cc(F)cc(C#N)c32)c2c1[C@H](O)C(F)(F)C2` [Example 192, (5S,8R)-8-[(1S)-2,2-difluoro-1-hydroxy-7-(5-methyl-1,3-thiazol-4-yl)-1,3-dihydroinden-4-yl]-3,5-difluoro-5,6,7,8-tetrahydronaphthalene-1-carbonitrile] was run?
Its IC50 is < 100 nM.

Which IC50 does the source give for `Cc1nc(N)sc1-c1ccc([C@H]2CC[C@H](F)c3cc(F)cc(C#N)c32)c2c1[C@H](O)C(F)(F)C2` [Example 188, (5S,8R)-8-[(1S)-7-(2-amino-4-methyl-1,3-thiazol-5-yl)-2,2-difluoro-1-hydroxy-1,3-dihydroinden-4-yl]-3,5-difluoro-5,6,7,8-tetrahydronaphthalene-1-carbonitrile] here?
Its IC50 is 100 to 1000 nM.
